# Assay results published in PubChem BioAssay (NCI).
#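 96-well plates; 48 h exposure; 5 concentrations. Endpoints by linear interpolation between flanking doses. Not reached: highest tested concentration assigned. At the GI50, growth is halved. TGI marks complete inhibition of growth.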
# Key:
# Test in all cases: NCI tumour cell line growth inhibition, 48 h
# 786-0 renal = system: 786-0 renal
# A498 renal = system: A498 renal
# A549 NSCLC = system: A549 NSCLC
# ACHN renal = system: ACHN renal
# BT-549 breast = system: BT-549 breast
# CAKI-1 renal = system: CAKI-1 renal
# CCRF-CEM leukemia = system: CCRF-CEM leukemia
# COLO 205 colon = system: COLO 205 colon
# DU-145 prostate = system: DU-145 prostate
# EKVX NSCLC = system: EKVX NSCLC
# HCC-2998 colon = system: HCC-2998 colon
# HCT-116 colon = system: HCT-116 colon
# HCT-15 colon = system: HCT-15 colon
# HL-60(TB) leukemia = system: HL-60(TB) leukemia
# HOP-62 NSCLC = system: HOP-62 NSCLC
# HOP-92 NSCLC = system: HOP-92 NSCLC
# HS 578T breast = system: HS 578T breast
# HT29 colon = system: HT29 colon
# IGROV1 ovarian = system: IGROV1 ovarian
# K-562 leukemia = system: K-562 leukemia
# KM12 colon = system: KM12 colon
# LOX IMVI melanoma = system: LOX IMVI melanoma
# M14 melanoma = system: M14 melanoma
# MALME-3M melanoma = system: MALME-3M melanoma
# MCF7 breast = system: MCF7 breast
# MDA-MB-231 breast = system: MDA-MB-231 breast
# MDA-MB-435 = system: MDA-MB-435
# MOLT-4 leukemia = system: MOLT-4 leukemia
# NCI-H226 lung = system: NCI-H226 lung
# NCI-H23 lung = system: NCI-H23 lung
# NCI-H460 lung = system: NCI-H460 lung
# NCI-H522 lung = system: NCI-H522 lung
# NCI/ADR-RES ovarian = system: NCI/ADR-RES ovarian
# OVCAR-3 ovarian = system: OVCAR-3 ovarian
# OVCAR-4 ovarian = system: OVCAR-4 ovarian
# OVCAR-5 ovarian = system: OVCAR-5 ovarian
# OVCAR-8 ovarian = system: OVCAR-8 ovarian
# PC-3 prostate = system: PC-3 prostate
# RPMI-8226 leukemia = system: RPMI-8226 leukemia
# RXF 393 renal = system: RXF 393 renal
# SF-268 CNS = system: SF-268 CNS
# SF-295 CNS = system: SF-295 CNS
# SF-539 CNS = system: SF-539 CNS
# SK-MEL-2 melanoma = system: SK-MEL-2 melanoma
# SK-MEL-28 melanoma = system: SK-MEL-28 melanoma
# SK-MEL-5 melanoma = system: SK-MEL-5 melanoma
# SK-OV-3 ovarian = system: SK-OV-3 ovarian
# SN12C renal = system: SN12C renal
# SNB-19 CNS = system: SNB-19 CNS
# SNB-75 CNS = system: SNB-75 CNS
# SR leukemia = system: SR leukemia
# SW-620 colon = system: SW-620 colon
# T-47D breast = system: T-47D breast
# TK-10 renal = system: TK-10 renal
# U251 CNS = system: U251 CNS
# UACC-257 melanoma = system: UACC-257 melanoma
# UACC-62 melanoma = system: UACC-62 melanoma
# UO-31 renal = system: UO-31 renal
smiles,measurement,setting,value
COc1cccc(/C=C2\CCc3ccccc3C2=O)c1,GI50,786-0 renal,18.2 µM
same,TGI,786-0 renal,39.9 µM
same,GI50,A498 renal,12.1 µM
same,TGI,A498 renal,25.1 µM
same,GI50,A549 NSCLC,20.1 µM
same,TGI,A549 NSCLC,60.1 µM
same,GI50,ACHN renal,10.2 µM
same,TGI,ACHN renal,25.3 µM
same,GI50,BT-549 breast,20 µM
same,TGI,BT-549 breast,47.6 µM
same,GI50,CAKI-1 renal,11.3 µM
same,TGI,CAKI-1 renal,36.4 µM
same,GI50,CCRF-CEM leukemia,3.04 µM
same,TGI,CCRF-CEM leukemia,16.5 µM
same,GI50,COLO 205 colon,19.9 µM
same,TGI,COLO 205 colon,34.1 µM
same,GI50,DU-145 prostate,6.07 µM
same,TGI,DU-145 prostate,18.7 µM
same,GI50,EKVX NSCLC,13.9 µM
same,TGI,EKVX NSCLC,29.3 µM
same,GI50,HCC-2998 colon,15.8 µM
same,TGI,HCC-2998 colon,30.6 µM
same,GI50,HCT-116 colon,9.26 µM
same,TGI,HCT-116 colon,25.3 µM
same,GI50,HCT-15 colon,10.5 µM
same,TGI,HCT-15 colon,49.4 µM
same,GI50,HL-60(TB) leukemia,21.9 µM
same,TGI,HL-60(TB) leukemia,67.4 µM
same,GI50,HOP-62 NSCLC,14.6 µM
same,TGI,HOP-62 NSCLC,29.2 µM
same,GI50,HOP-92 NSCLC,13.3 µM
same,TGI,HOP-92 NSCLC,35.4 µM
same,GI50,HS 578T breast,3.33 µM
same,TGI,HS 578T breast,17.9 µM
same,GI50,HT29 colon,5.89 µM
same,TGI,HT29 colon,19.4 µM
same,GI50,IGROV1 ovarian,12.5 µM
same,TGI,IGROV1 ovarian,35 µM
same,GI50,K-562 leukemia,3.29 µM
same,TGI,K-562 leukemia,57.1 µM
same,GI50,KM12 colon,6.31 µM
same,TGI,KM12 colon,18.8 µM
same,GI50,LOX IMVI melanoma,12.9 µM
same,TGI,LOX IMVI melanoma,36.8 µM
same,GI50,M14 melanoma,17 µM
same,TGI,M14 melanoma,39.6 µM
same,GI50,MALME-3M melanoma,12.7 µM
same,TGI,MALME-3M melanoma,29 µM
same,GI50,MCF7 breast,3.53 µM
same,TGI,MCF7 breast,17.8 µM
same,GI50,MDA-MB-231 breast,22.8 µM
same,TGI,MDA-MB-231 breast,87.6 µM
same,GI50,MDA-MB-435,4.15 µM
same,TGI,MDA-MB-435,20.1 µM
same,GI50,MOLT-4 leukemia,3.38 µM
same,TGI,MOLT-4 leukemia,25.2 µM
same,GI50,NCI-H226 lung,17.8 µM
same,TGI,NCI-H226 lung,43.1 µM
same,GI50,NCI-H23 lung,16.3 µM
same,TGI,NCI-H23 lung,40.1 µM
same,GI50,NCI-H460 lung,17 µM
same,TGI,NCI-H460 lung,35 µM
same,GI50,NCI-H522 lung,4.09 µM
same,TGI,NCI-H522 lung,22.3 µM
same,GI50,NCI/ADR-RES ovarian,10.1 µM
same,TGI,NCI/ADR-RES ovarian,48.8 µM
same,GI50,OVCAR-3 ovarian,12.9 µM
same,TGI,OVCAR-3 ovarian,26.2 µM
same,GI50,OVCAR-4 ovarian,13.7 µM
same,TGI,OVCAR-4 ovarian,54.5 µM
same,GI50,OVCAR-5 ovarian,17.6 µM
same,TGI,OVCAR-5 ovarian,42.7 µM
same,GI50,OVCAR-8 ovarian,12.4 µM
same,TGI,OVCAR-8 ovarian,60.7 µM
same,GI50,PC-3 prostate,16.3 µM
same,TGI,PC-3 prostate,65.1 µM
same,GI50,RPMI-8226 leukemia,2.89 µM
same,TGI,RPMI-8226 leukemia,8.94 µM
same,GI50,RXF 393 renal,16.1 µM
same,TGI,RXF 393 renal,32.4 µM
same,GI50,SF-268 CNS,14.8 µM
same,TGI,SF-268 CNS,29.1 µM
same,GI50,SF-295 CNS,9.62 µM
same,TGI,SF-295 CNS,27.3 µM
same,GI50,SF-539 CNS,16.4 µM
same,TGI,SF-539 CNS,36.9 µM
same,GI50,SK-MEL-2 melanoma,12.9 µM
same,TGI,SK-MEL-2 melanoma,28.2 µM
same,GI50,SK-MEL-28 melanoma,15.5 µM
same,TGI,SK-MEL-28 melanoma,31 µM
same,GI50,SK-MEL-5 melanoma,10.7 µM
same,TGI,SK-MEL-5 melanoma,23 µM
same,GI50,SK-OV-3 ovarian,20.7 µM
same,TGI,SK-OV-3 ovarian,75.6 µM
same,GI50,SN12C renal,15.8 µM
same,TGI,SN12C renal,40.2 µM
same,GI50,SNB-19 CNS,12.4 µM
same,TGI,SNB-19 CNS,26.7 µM
same,GI50,SNB-75 CNS,16.9 µM
same,TGI,SNB-75 CNS,36 µM
same,GI50,SR leukemia,3.1 µM
same,TGI,SR leukemia,15.1 µM
same,GI50,SW-620 colon,3.7 µM
same,TGI,SW-620 colon,13.4 µM
same,GI50,T-47D breast,13.6 µM
same,TGI,T-47D breast,38.9 µM
same,GI50,TK-10 renal,15.1 µM
same,TGI,TK-10 renal,34.6 µM
same,GI50,U251 CNS,5.3 µM
same,TGI,U251 CNS,20.2 µM
same,GI50,UACC-257 melanoma,13.4 µM
same,TGI,UACC-257 melanoma,28.9 µM
same,GI50,UACC-62 melanoma,10.8 µM
same,TGI,UACC-62 melanoma,25.7 µM
same,GI50,UO-31 renal,10.9 µM
same,TGI,UO-31 renal,24.3 µM
